Data as given in patent US20240238787A1, “PLATE ASSAY DEVICE AND METHOD FOR IN SITU IMAGING” (Duke University, priority 2023, published 2024).

Assays:
[1] = system: P. aeruginosa PA14 biofilm; test: antibiotic challenge of biofilm on ziggurat peg lid (modified ASTM E2799-22), OD 600 reading and CFU count after sonication; assay type: cell-based, Pseudomonas aeruginosa PA14; conditions: peg 110, vs no antibiotic; for reduction in CFU on a per area basis: 24 h challenge; for OD600 mean reduction: biofilm recovered in PBS by sonication
Method: The applicability lid having pegs 110 with a ziggurat shape was evaluated to the relevant ATSM standard, E2799-22, modified workflow FIG. 6. Specifically, the pegs 110 were inoculated in a 24-well plate with media at step 300 and incubated at step 304. At step 308, the pegs 110 were then challenged with antibiotics and then incubated again at step 312. At step 316, the pegs were washed or rinsed and, at step 320, placed in PBS for imaging. The pegs 110 were sonicated, at step 324, to remove attached biofilm, which was quantified using OD 600 reading, at step 328, and a CFU count, at step 332. Importantly, the lid 100 could be handled in the same fashion as the commercially available peg lid. The pegs 110 were less rigidly attached to the lid 100 than the commercially available peg lid and could be broken off easily for a biofilm growth check, although due to the ring of biofilm at the air-medium interface typical of wild-type PA14, this could also be verified visually. Due to the design, it was also possible to image in situ. With respect to FIGS. 7A-7D, after imaging, OD 600 and CFU counts were performed to verify no loss of function between the lid 100 optimized for imaging and the commercially available peg lid. Specifically, the raw data and mean difference versus no antibiotics are shown for 100 μg/mL tetracycline, 10 μg/mL tetracycline on an OD 600 basis on the MBEC® Assay (FIG. 7A), the modified plate (FIG. 7B), and on a CFU/mm2 for PA14 (FIG. 7C). […] PA14 was grown on pegs in TSB for 24 hours before recovery. Wells were categorized as “inside” (e.g., those on the dash-dot line) or “outside” (e.g., those on the dashed line) according to the layout in FIG. 9B. The mean differences was plotted using bootstrap sampling distributions and 95% confidence interval is indicated by the ends of the vertical error bars using EstimationStats.
Experiments were conducted using Pseudomonas aeruginosa PA14, which constitutively expressed GFP. Cultures were grown over-night in tryptic soy broth (VWR International, USA) at 37° C. and 150 rpm. 10 μL of the overnight culture was used to inoculate 50 mL of fresh TSB. The growth plate (24 well, VWR International, USA) was prepared by dispensing […] of broth per well, adding the peg lid 100, and incubating for 24 h at 37° C. and 100 rpm. […]
Transfers between media and rinse plates were accomplished by lifting the peg lid 100, allowing excess liquid to drip off, and gently placing the lid 100 in the new plate. […] The efficacy of removal from the surface by sonication as not tested, however the resultant OD600 readings for P. aeruginosabetween this and the MBEC® assay were similar […]

[2] = system: P. aeruginosa PA14 biofilm streamers; test: in situ confocal laser scanning microscopy of biofilm and biofilm streamers on ziggurat peg after antibiotic challenge; assay type: cell-based, Pseudomonas aeruginosa PA14; conditions: 10 μg/mL
Description: The intent of this peg 110 is to optimize for in situ confocal imaging. Two imaging techniques were applied to evaluate this. With respect to FIG. 8B, the surface 128i of the distal-most portion 128i of the peg 110 was captured using a tile and z-stack approach. The biomass formed on the edges of the peg 110 and, in the “no antibiotic” samples, could be thick enough to scatter the fluorescent light emission. FIG. 8B illustrates selected 3D tiles of the surface of the surface 128i of the peg 110 with an area of 8.042 mm2. This is known to leave imaging artifacts resembling “holes” in the images observed in FIG. 8B (e.g., “No antibiotic”). Streamers, are often formed in this area. […] With respect to FIGS. 8A and 8C, the surface biomass on the second end 116 analyzed using COMSTAT 2.1 was plotted using EstimationStats. With respect to FIGS. 8D and 8F, the biomass on the second step 128h of the step analyzed using COMSTAT 2.1 was plotted using EstimationStats. […]
Pegs 110, 150, 160, 170, 180, 190 were imaged in PBS with an inverted Zeiss LSM 900 (Zeiss, Germany) using a 488 nm laser for excitation and detection wavelengths of […] (green) for GFP and 590-700 nm (red) for identifying autofluorescence. […] Biomass quantification of antibiotic plate images was performed using Comstat2 v2.1 as an ImageJ plugin. […]

CN(C)[C@@H]1C(O)=C(C(N)=O)C(=O)[C@@]2(O)C(O)=C3C(=O)c4c(O)cccc4[C@@](C)(O)[C@H]3C[C@@H]12 [tetracycline]
reduction in CFU on a per area basis ([1]; 10 μg/mL tetracycline): 0 fold | OD600 mean reduction ([1]; 10 μg/mL tetracycline): 0.02 | reduction in CFU on a per area basis ([1]; 100 μg/mL tetracycline): 3 fold | OD600 mean reduction ([1]; 100 μg/mL tetracycline): 0.03 | streamer midpoint diameter as % of the no antibiotic streamer ([2]; no antibiotic streamer 309.09±10.43 μm): 12.96% | approximate midpoint diameter of biofilm streamer ([2]; streamer between surface 128i and step 128h, FIG. 8E): ~40.05±11.98 μm
